The subject of the series is BALB/3T3 clone A31. Description: in vitro 3T3 NRU phototoxicity test. The following applies: for PIF (Photo irritation factor): calculated from IC50 with and without UV (Phototox 2.6). The format is cell-based. Here is the method:
This test was to evaluate phototoxicity after treating cells of BALB/3T3 clone A31 with a sample in the in vitro 3T3 NRU phototoxicity test. The phototoxicity was identified by evaluating cell viability, IC50 according to the presence or absence of light irradiation, and phototoxicity according to concentration response [photo irritation factor (PIF), and mean photo effect (MPE)].
In addition, as a negative control group, PBS diluted in DMEM was used.
Each of test substances was dissolved in PBS and diluted in steps at […] 2.
UVA (315-400 nm) causing a phototoxic reaction by activating chemical materials without toxicity to cells was irradiated, and the amount of light was 5 J/cm^2.
100 μl of cell suspension (1×10^4 cells/well) and medium were dispensed into two 96 well plates per group, and the cells were cultured for 24 hours in a cell incubator at 37° C. and 5% CO^2.
After removing the medium, the cells were washed once with 150 μl of warm PBS.
The UV irradiation plate was irradiated with UVA at a light intensity of 5 J/cm^2, and while UV was irradiated, the non-irradiated plate was shielded with aluminum foil and left at room temperature. After removing the solution, washing was performed twice with 150 μl of warm PBS. 100 μl of the medium was dispensed and the cells were cultured for 20±2 hours in a cell incubator at 37° C. and 5% CO2.
The growth and morphology of the cells were observed using a microscope, the medium was removed therefrom, and then the cells were washed once with 150 μl of warm PBS. After dispensing 100 μl of neutral red medium, the cells were incubated for 3 hours in a cell incubator at 37° C. and 5% CO2. After removing the neutral red medium, the cells were washed once with 150 μl of warm PBS. 150 μl of neutral red extract was dispensed, and the plate was stirred for 10 minutes while light was shielded.
Absorbance was measured at a wavelength of 540 nm by using a multi-channel microplate reader.
Phototoxicity was judged by calculating PIF and MPE values using IC50 according to the presence or absence of light irradiation.
PIF and MPE values were calculated from the measured absorbance values by using the software (Phototox 2.6, ZEBET at the BFR, Berlin Germany), and no statistical method was performed.

In brackets after ≈: the same amount, converted by molar mass. Several values for one entry are separate records, joined by “and”; a condition that tells them apart may be missing. Equal values may be shown once.

Take `CN(C)CCCN1c2ccccc2Sc2ccc(Cl)cc21` [CPZ]: the “Cell viability (% of NC)” value by setting is: (UV (+), 0.04 μg/mL) 102.67 % of NC; (UV (+), 0.08 μg/mL) 89.09 % of NC; (UV (+), 0.16 μg/mL) 98.75 % of NC; (UV (+), 0.31 μg/mL) 106.73 % of NC; (UV (+), 0.63 μg/mL) 103.10 % of NC; (UV (+), 2.5 μg/mL) 11.51 % of NC. In addition, the “Cell viability (% of NC)” value is recorded as 12.32 % of NC (UV (+), 5 μg/mL); 109.65 % of NC (UV (−), 1.56 μg/mL); 103.07 % of NC (UV (−), 3.13 μg/mL); 114.87 % of NC (UV (−), 6.25 μg/mL); 65.55 % of NC (UV (−), 25 μg/mL); 9.50 % of NC (UV (−), 50 μg/mL). For the same molecule, the “Cell viability (% of NC)” value (UV (−), 100 μg/mL) was 9.37 % of NC and the “Cell viability (% of NC)” value (UV (−), 200 μg/mL) is reported as 9.31 % of NC. Further, the “IC50 (50% inhibitory concentration, cell viability)” value by setting is: (UV (+), UVA 5 J/cm^2, listed as PC) 1.650 µg/mL (≈ 5.17 µM); (UV (−), UV not irradiated, listed as PC) 28.043 µg/mL (≈ 87.9 µM). The “PIF (Photo irritation factor)” value was 17.144 (listed as PC); 17.1444 and 17.144 (listed as positive control material). Further, under “calculated from concentration response with and without UV (Phototox 2.6)”, the “MPE (Mean photo effect)” value is on record as 0.459.

The values above are taken from patent publication US20230220122A1, “METHOD FOR PRODUCTION OF FUNCTIONAL POLYSACCHARIDE AND COSMETIC COMPOSITION” (CARBOEXPERT INC., priority 2019, published 2023).
